According to article PMC11836371, “Virtual fragment screening for DNA repair inhibitors in vast chemical space” (Nature Communications, 2025):
Several values for one entry are separate records, joined by “and”; a condition that tells them apart may be missing. Equal values may be shown once. Read-outs that look alike come from different tables or passages of the source.

What was measured:
human OGG1 enzyme [1] = molecular target: T1, human OGG1 enzyme (Homo sapiens, UniProt O15527); experiment: OGG1 glycosylase activity assay (enzyme inhibition, APE1-coupled fluorescence); format: biochemical
T1 sequence (O15527 whole entry): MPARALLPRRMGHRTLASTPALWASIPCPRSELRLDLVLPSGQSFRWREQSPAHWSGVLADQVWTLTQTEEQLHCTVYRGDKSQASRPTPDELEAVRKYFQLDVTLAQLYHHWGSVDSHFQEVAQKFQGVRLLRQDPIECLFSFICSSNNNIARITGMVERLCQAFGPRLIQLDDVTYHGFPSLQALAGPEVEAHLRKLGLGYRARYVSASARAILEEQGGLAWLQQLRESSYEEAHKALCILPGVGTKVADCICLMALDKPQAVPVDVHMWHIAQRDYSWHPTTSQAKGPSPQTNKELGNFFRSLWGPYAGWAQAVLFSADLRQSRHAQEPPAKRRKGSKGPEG
Procedure: “8” signifies 8-oxoA and “FAM” and “Dab” signify fluorescein and dabcyl (TriLink Biotech). Briefly, compounds dissolved in DMSO were dispensed using an Echo 550 (Labcyte), followed by transfer of enzyme and substrate solutions manually with a 16-channel pipette or with a Multidrop (Thermo Scientific). The plates were centrifuged, sealed and incubated at room temperature overnight (15 h) and read the following morning in an Hidex Sense plate reader (Hidex Oy) using a 485-nm filter with a bandwidth of 10 nm for excitation and a 535-nm filter with a bandwidth of 20 nm for emission.

human OGG1 enzyme [2] = molecular target: T1, human OGG1 enzyme; experiment: Differential scanning fluorimetry (DSF) thermal shift assay; format: binding; set-up: ∆Tm (K): unit of the concentration uncertain
Procedure: The temperature was increased from 20 °C to 85 °C with 10 readings/degree. Tm values were calculated using an excel template and fitting to the Boltzmann equation in Prism v.6.07 (GraphPad Software).

[3] = tested on: NF-κB activation in HEK293T pGF NF-κB cells; experiment: TNF-α induced NF-κB activation assay; format: cell-based; details: Homo sapiens, HEK-293T; NFκB activation assay; ± SD; read-out: pEC50 (converted)
Procedure: The inhibition of TNF-α induced NF-κB activation was measured in HEK293T cells transfected with the pGreenfire NF-κB plasmid. This is a plasmid that has NF-κB response elements (TRE) coupled to GFP and luciferase expression. When the NF-κB is activated by TNF-α, it binds to the TRE and induces GFP expression, and the fluorescence can be measured in a plate reader. The cells were authenticated with STR profiling, frozen down and these stocks were used in experiments. The HEK293T pGF NF-κB cells were kept in DMEM with 5% FBS and 1% P/S but, when seeded for the assay the medium was changed to DMEM FluoroBrite with 1% dialyzed FBS. All cell culture reagents were purchased from Thermo Fisher Scientific. Compounds were nano-dispensed (Echo acoustic dispenser) in 96-well, black/clear, assay plates (Corning #3904), duplicate plates, in 8-points dose-response curves, 1:2 dilutions, with DMSO compensation (0.3% DMSO). Cells were seeded at 30000 cells/well in medium containing 10 ng/mL of TNF-α (Sigma-Aldrich), except negative control wells which only contained cells in medium. Cells were cultured for 24 hours in a humidified incubator at 37 °C with 5% CO2 after which the GFP fluorescence was measured in a Sense plate reader (Hidex) with ex485/em535. The RFU data from the duplicate plates were combined to calculate % inhibition of NF-κB activation and IC50-values were calculated using XLfit (IDBS). In parallel with the NF-κB assay, a CellTiterGlo (Promega) cell viability assay was run to exclude compounds affecting cell viability. Compounds were nano-dispensed (Echo acoustic dispenser) in assay plates in 11-points dose-response curves, 1:3 dilutions, without DMSO compensation, with duplicates on the same plate. Cells were seeded at 7500 cells/well in 25 µL medium (DMEM FluoroBrite with 1% dialyzed FBS) containing 10 ng/mL TNF-α and cultured for 24 hours, with column 24 containing only culture medium. After equilibration to room temperature, the CellTiterGlo reagents were mixed and 25 µL/well were added to the cell plate. After 2 min mixing of the plate on an orbital shaker, the plate was incubated for 10 min at room temperature followed by luminescence reading in Sense. The cell viability was calculated compared to untreated control wells and the EC50 values were determined in XLfit (IDBS). […]

A549 cells = experiment: Cancer cell viability assay (resazurin), A549; format: cell-based; details: two independent experiments; for percentage cell viability: A549, 100 μM, 100 µM; for viability at 100 µM: Homo sapiens, A549, A549, 100 μM, read-out: percentage cell viability
Procedure: (§1) Three different cancer cell lines A2780 (ovarian cancer, ECACC 93112519), A549 (lung cancer, ATCC 60150896) and HCT116 (colon cancer, ATCC CCL-247), and one immortalized fibroblast cell line (BJhTERT) as control, were seeded in black/clear 384-well plates (Corning #3764), 50 µL/well, containing 11 concentrations, nano-dispensed, dose-response curves of the test compounds. A2780, HCT116, and HEK293T cell lines were authenticated with STR profiling, frozen down, and these stocks were used in experiments. The A2780 cells were cultured in RPMI 1640, the A549 and BJhTERT cells in DMEM, and the HCT116 cells in McCoys 5 A medium. All media were supplemented with 10% FBS and 1% P/S. All cell culture media, additives, and reagents were purchased from Thermo Fisher Scientific. The cell plates were incubated 72 hours in a humidified incubator at 37 °C with 5% CO2, after which resazurin (Sigma-Aldrich), 10 µL/well, was added to a final concentration of 10 µg/mL. The plates were incubated for 6 hours with resazurin followed by fluorescence readings in a Sense plate reader (Hidex), resorufin protocol (ex 544 nm/em 595 nm). The cell viability was calculated compared to untreated control wells and the EC50 values were determined in XLfit (IDBS).

BJhTERT cells = experiment: Cell viability assay (resazurin), BJhTERT non-transformed control; format: cell-based; details: BJhTERT, 100 μM, two independent experiments
Procedure: (§2) A2780, HCT116, and HEK293T cell lines were authenticated with STR profiling, frozen down, and these stocks were used in experiments. […] All media were supplemented with 10% FBS and 1% P/S. All cell culture media, additives, and reagents were purchased from Thermo Fisher Scientific. The cell plates were incubated 72 hours in a humidified incubator at 37 °C with 5% CO2, after which resazurin (Sigma-Aldrich), 10 µL/well, was added to a final concentration of 10 µg/mL. […] The cell viability was calculated compared to untreated control wells and the EC50 values were determined in XLfit (IDBS).

[4] = as above; format: cell-based; details: human, BJhTERT, 100 μM, two independent experiments; read-out: percentage cell viability
Procedure: as §2

HCT116 cells = experiment: Cancer cell viability assay (resazurin), HCT116; format: cell-based; details: two independent experiments; for percentage cell viability: HCT116, 100 μM, 100 µM; for viability at 100 µM: Homo sapiens, HCT-116, HCT116, 100 μM, read-out: percentage cell viability
Procedure: as §1

A2780 cells = experiment: Cancer cell viability assay (resazurin), A2780; format: cell-based; details: two independent experiments; for percentage cell viability: A2780, 100 μM, 100 µM; for viability at 100 µM: Homo sapiens, A2780, A2780, 100 μM, read-out: percentage cell viability
Procedure: as §1

MTH1 = MTH1 (Homo sapiens, UniProt P36639); experiment: biochemical
Procedure: Inhibition of the following enzymes was assessed in the selectivity assays: apurinic/apyrimidinic endonuclease (APE1), endonuclease 8-like 1 (NEIL1), oxidized purine nucleoside triphosphate hydrolase (MTH1) and single-strand selective monofunctional uracil DNA glycosylase (SMUG1). BER enzymes were assayed with a similar strategy as OGG1, using identical DNA sequences surrounding the substrate lesion and the same reaction buffer containing 2 nM APE1. To assess SMUG1 inhibition, a 375 nM substrate containing uracil opposite guanine and 0.3 U SMUG1 enzyme (M0336 from New England Biolabs) was used. To assess NEIL1 inhibition, a 20 nM substrate containing thymidine glycol opposite adenine and 10 nM NEIL1 was used. To assess APE1 inhibition, an UNG2 substrate was pre-treated with E. coli Uracil-DNA glycosylase (New England Biolabs M0280) to generate an AP-site opposite adenine, which was used at 10 nM concentration in the presence of 0.1 nM APE1. All BER inhibition assays were in the linear range and less than 40% of the total substrate had been consumed at readout. The experiments were performed in three independent replicates and the percentage inhibition was calculated relative to the signal of a DMSO-treated control. To assess MTH1 inhibition, MTH1-catalyzed dGTP hydrolysis was coupled to inorganic pyrophosphatase (PPase), thereby releasing inorganic phosphate. The produced free phosphate was then detected using the malachite green assay[76]. […] Substrate concentration at the Km value for the respective substrate was chosen if possible. Inhibition using 100 μM compound was tested in reaction buffer (100 mM Tris-Acetate pH 8.0, 10 mM magnesium acetate, 40 mM NaCl, 1 mM DTT, and 0.005% Tween-20). Samples were incubated with shaking at 22 °C for 15 minutes. The reaction was then stopped by the addition of the malachite green reagent[76]. Absorbance was read at 630 nm using a Hidex Sense plate reader after a period of incubation with the methylene green reagent of 15 minutes. The experiment was performed in three independent replicates and percentage inhibition was calculated relative to the signal of a DMSO-treated control.

[5] = 99 (unit uncertain) as printed in sheet footnote
[6] = Figure 3B source data, three independent experiments, read-out: IC50 OGG1
[7] = Table S5, ± SD, read-out: pIC50 (converted)

| Structure (SMILES) | ∆Tm (K) (human OGG1 enzyme [2]; 99 μM) | IC50 (human OGG1 enzyme [1]; [7]) | EC50 [3] | percentage cell viability (A549 cells) | viability at 100 µM (A549 cells) | percentage cell viability (BJhTERT cells) | viability at 72 h, 100 µM [4] | percentage cell viability (HCT116 cells) | viability at 100 µM (HCT116 cells) | percentage cell viability (A2780 cells) | viability at 100 µM (A2780 cells) | also measured |
| --- | --- | --- | --- | --- | --- | --- | --- | --- | --- | --- | --- | --- |
| Cc1cc(C)n(-c2cc(F)c(CC(=O)Nc3noc4c3CCCC4)c(F)c2)n1 [compound 8] | 5.4 ± 0.5 K |  | 11.2 µM | 33.07% | 32.8% | 42.84% | 40.1% | 43.25% | 35.4% | 19.16% | 17.4% | IC50 (human OGG1 enzyme [1]; Table 1, mean ± SD, at least three independent replicates, read-out: pIC50 (converted)): 6.46 µM; ∆Tm (K) (human OGG1 enzyme [2]; [5]): 5.4 ± 0.5 K |
| Cc1cc(C2CC2)n(-c2ccc(CC(=O)Nc3noc4c3CCCC4)cc2)n1 [compound 9] | 6.6 ± 0.6 K | 3.72 µM | 9.12 µM | 68.3% | 68.1% | 80.1% | 73% | 86.44% | 81.6% | 25.03% | 21.5% | IC50 (human OGG1 enzyme [1]; [6]): 6.28 µM and 6.2 µM and 6.46 µM |
| Cc1nn(-c2ccc(CC(=O)Nc3noc4c3CCCC4)cc2)c2ccc(N)cc12 [compound 14] |  | 9.77 µM | 6.61 µM | 28.85% | 28.3% | 41.42% | 38.5% | 30.89% | 26% | 5.95% | 3.81% |  |
| O=C(Cc1ccc(-n2ncc3c2CCNC3)cc1)Nc1noc2c1CCCC2 [compound 16] |  | > 100 µM | > 31.6 µM |  |  |  |  |  |  |  |  |  |
| Cc1nc(-c2ccc(CC(=O)Nc3noc4c3CCCC4)c(C)c2)c(C)[nH]1 [compound 19] | 7.4 ± 0.2 K | 0.813 µM | 10.5 µM |  |  | 24.77% | 15.2% | 6.65% | 5.31% | 2.96% | 2.43% |  |
| Cc1nc(-c2ccc(CC(=O)Nc3noc4c3CCCC4)c(F)c2)c(C)[nH]1 [compound 20] | 8.6 ± 0.5 K | 0.741 µM | 20.4 µM | 35.78% | 35% | 24.23% | 23.9% | 15.72% | 13% | 2.93% | 2.84% |  |

Second part, led by results:

| ∆Tm (K) (human OGG1 enzyme [2]; 99 μM) | IC50 (human OGG1 enzyme [1]; [7]) | Structure (SMILES) | EC50 [3] | percentage cell viability (A549 cells) | viability at 100 µM (A549 cells) | percentage cell viability (BJhTERT cells) | viability at 72 h, 100 µM [4] | percentage cell viability (HCT116 cells) | viability at 100 µM (HCT116 cells) | percentage cell viability (A2780 cells) | viability at 100 µM (A2780 cells) | also measured |
| --- | --- | --- | --- | --- | --- | --- | --- | --- | --- | --- | --- | --- |
| 5.5 K and 5.5 ± 1.2 K |  | Cc1cc(C)n(-c2ccc(CC(=O)Nc3noc4c3CCCC4)cc2)n1 [compound 7] | 35.5 µM |  |  |  |  |  |  |  |  | OGG1 inhibition, dose-response (Figure2C) (human OGG1 enzyme [1]; Concentration (M) 9.67e-7): 16.25 and 10.96; OGG1 inhibition, dose-response (Figure2C) (human OGG1 enzyme [1]; Concentration (M) 1.93e-6): 24.11 and 22.26; OGG1 inhibition, dose-response (Figure2C) (human OGG1 enzyme [1]; Concentration (M) 3.87e-6): 37.42 and 38.76; OGG1 inhibition, dose-response (Figure2C) (human OGG1 enzyme [1]; Concentration (M) 7.73e-6): 52.82 and 50.97; OGG1 inhibition, dose-response (Figure2C) (human OGG1 enzyme [1]; Concentration (M) 1.55e-5): 74.43 and 67.46; OGG1 inhibition, dose-response (Figure2C) (human OGG1 enzyme [1]; Concentration (M) 3.09e-5): 80.92 and 75.35; OGG1 inhibition, dose-response (Figure2C) (human OGG1 enzyme [1]; Concentration (M) 6.19e-5): 85.03 and 86.63; OGG1 inhibition, dose-response (Figure2C) (human OGG1 enzyme [1]; Concentration (M) 0.000124): 92.57 and 92.28; OGG1 inhibition, dose-response (Figure2C) (human OGG1 enzyme [1]; Concentration (M) 0.000248): 92.32 and 95.26; OGG1 inhibition, dose-response (Figure2C) (human OGG1 enzyme [1]; Concentration (M) 0.000495): 96.86 and 92.16; IC50 (human OGG1 enzyme [1]; read-out: IC50): 6.6 µM; ∆Tm (K) (human OGG1 enzyme [2]; [5]): 5.5 ± 1.2 K; ΔTm (human OGG1 enzyme [2]; concentration not given): 5.5 K |
| 4.8 ± 0.4 K | 1.29 µM | Cc1nn(-c2ccc(CC(=O)Nc3noc4c3CCCC4)cc2)c2ccccc12 [compound 10] | 6.61 µM | 6.63% | 5.97% | 8.77% | 8.08% | 2.45% | 2% | 1.45% | 0.84% |  |
| 2.3 K | 10.5 µM | O=C(Cc1ccc(-n2nc(Cl)c3ccccc32)cc1)Nc1noc2c1CCCC2 [compound 12] | 5.5 µM | 10.09% | 12.3% | 28.88% | 30.1% | 2.49% | 3.25% | 0.88% | 1.08% |  |
|  | 47.9 µM | O=C(Cc1ccc(-n2ncc3ccncc32)cc1)Nc1noc2c1CCCC2 [compound 13] | 14.1 µM |  |  |  |  |  |  |  |  |  |
| 7.8 K | 0.832 µM | Cc1nc(-c2ccc(CC(=O)Nc3noc4c3CCCC4)cc2F)c(C)[nH]1 [compound 18] | 11.7 µM | 56.99% | 53.3% | 41.01% | 38.1% | 53.92% | 45.2% | 4.22% | 3.84% | IC50 (human OGG1 enzyme [1]; [6]): 0.589 µM and 0.638 µM and 0.615 µM; IC50 (MTH1): 18.4 µM and 20 µM and 18.5 µM |
| 5.9 K | 2.09 µM | Cc1[nH]c(Br)nc1-c1ccc(CC(=O)Nc2noc3c2CCCC3)cc1 [compound 21] | 11.5 µM | 31.92% | 23.9% | 76% | 63.3% | 47.52% | 38.9% | 6.18% | 4.62% |  |
| 6.3 K | 1.95 µM | Cc1nc(-c2ccc(CC(=O)Nc3noc4c3CCCC4)nc2)c(C)[nH]1 [compound 22] | 28.2 µM | 96.69% | 79.4% | 76.15% and 96.63% |  | 64.01% and 103.96% |  | 65.16% | 50.2% |  |
